Measured values from patent publication US20130287805A1, “C18ORF54 PEPTIDES AND VACCINES INCLUDING THE SAME” (priority 2010, published 2013).
Entries after “also recorded” stand apart in the source; their conditions may differ.

Key:
[1] = tested on: peptide-pulsed T2 cells; assay: IFN-gamma ELISPOT assay of CTLs induced in vitro with peptide-pulsed DCs; assay type: cell-based, human; details: CTLs from HLA-A*0201 positive donor, day 21, peptide-pulsed T2 versus no peptide control
Text: Monocyte-derived dendritic cells (DCs) were used as antigen-presenting cells to induce cytotoxic T lymphocyte (CTL) responses against peptides presented on human leukocyte antigen (HLA). DCs were generated in vitro as described elsewhere (Nakahara S et al., Cancer Res 2003 Jul. 15, 63(14): 4112-8). Specifically, peripheral blood mononuclear cells isolated from a normal volunteer (HLA-A*0201 positive) by Ficoll-Plaque (Pharmacia) solution were separated by adherence to a plastic tissue culture dish (Becton Dickinson) so as to enrich them as the monocyte fraction. The monocyte-enriched population was cultured in the presence of 1000 U/ml of granulocyte-macrophage colony-stimulating factor (R&D System) and 1000 U/ml of interleukin (IL)-4 (R&D System) in AIM-V Medium (Invitrogen) containing 2% heat-inactivated autologous serum (AS). After 7 days of culture, the cytokine-induced DCs were pulsed with 20 micro-g/ml of each of the synthesized peptides in the presence of 3 micro-g/ml of beta 2-microglobulin for 3 hr at 37 degrees C. in AIM-V Medium. The generated cells appeared to express DC-associated molecules, such as CD80, CD83, CD86 and HLA class II, on their cell surfaces (data not shown). These peptide-pulsed DCs were then inactivated by X-irradiated (20 Gy) and mixed at a 1:20 ratio with autologous CD8+ T cells, obtained by positive selection with CD8 Positive Isolation Kit (Dynal). These cultures were set up in 48-well plates (Corning); each well contained 1.5×10^4 peptide-pulsed DCs, 3×10^5 CD8+ T cells and 10 ng/ml of IL-7 (R&D System) in 0.5 ml of AIM-V/2% AS medium. Three days later, these cultures were supplemented with IL-2 (CHIRON) to a final concentration of 20 IU/ml. On day 7 and 14, the T cells were further stimulated with the autologous peptide-pulsed DCs. The DCs were prepared each time by the same way described above. CTL was tested against peptide-pulsed T2 cells after the 3rd round of peptide stimulation on day 21 (Tanaka H et al., Br J Cancer Jan. 5, 2001, 84(1): 94-9; Umano Y et al., Br J Cancer Apr. 20, 2001, 84(8): 1052-7; Uchida N et al., Clin Cancer Res Dec. 15, 2004, 10(24): 8577-86; Suda T et al., Cancer Sci May 2006, 97(5): 411-9; Watanabe T et al., Cancer Sci August 2005, 96(8): 498-506).
(§1) Specifically, peptide-pulsed T2 (1×10^4/well) was prepared as stimulator cells. Cultured cells in 48 wells were used as responder cells. IFN-gamma ELISPOT assay and IFN-gamma ELISA assay were performed under manufacture procedure.

[2] = tested on: peptide-pulsed T2 cells; assay: IFN-gamma ELISA assay of expanded CTL lines; assay type: cell-based, human; details: target cells pulsed with peptide versus without peptide pulse
Procedure: CTLs were expanded in culture using the method similar to the one described by Riddell et al. (Walter E A et al., N Engl J Med Oct. 19, 1995, 333(16): 1038-44; Riddell S R et al., Nat Med February 1996, 2(2): 216-23). A total of 5×10^4 CTLs were suspended in 25 ml of AIM-V/5% AS medium with 2 kinds of human B-lymphoblastoid cell lines, inactivated by Mitomycin C, in the presence of 40 ng/ml of anti-CD3 monoclonal antibody (Pharmingen). One day after initiating the cultures, 120 IU/ml of IL-2 were added to the cultures. The cultures were fed with fresh AIM-V/5% AS medium containing 30 IU/ml of IL-2 on days 5, 8 and 11 (Tanaka H et al., Br J Cancer Jan. 5, 2001, 84(1): 94-9; Umano Y et al., Br J Cancer Apr. 20, 2001, 84(8): 1052-7; Uchida N et al., Clin Cancer Res Dec. 15, 2004, 10(24): 8577-86; Suda T et al., Cancer Sci May 2006, 97(5): 411-9; Watanabe T et al., Cancer Sci August 2005, 96(8): 498-506).
as §1

[3] = tested on: peptide-pulsed T2 cells; assay: IFN-gamma ELISA assay of CTL clones established by limiting dilution; assay type: cell-based, human; details: target cells pulsed with peptide versus without peptide pulse
Procedure: The dilutions were made to have 0.3, 1, and 3 CTLs/well in 96 round-bottomed micro titer plate (Nalge Nunc International). CTLs were cultured with 1×10^4 cells/well of 2 kinds of human B-lymphoblastoid cell lines, 30 ng/ml of anti-CD3 antibody, and 125 U/ml of IL-2 in a total of […] of AIM-V Medium containing 5% AS. 50 micro-l/well of IL-2 were added to the medium 10 days later so to reach a final concentration of 125 U/ml IL-2. CTL activity was tested on the 14th day, and CTL clones were expanded using the same method as described above (Uchida N et al., Clin Cancer Res Dec. 15, 2004, 10(24): 8577-86; Suda T et al., Cancer Sci May 2006, 97(5): 411-9; Watanabe T et al., Cancer Sci August 2005, 96(8): 498-506).
as §1

[4] = tested on: COS7 cells transfected with C18orf54 and HLA-A*0201; assay: Specific CTL activity against target cells expressing C18orf54 and HLA-A*0201; assay type: cell-based, African green monkey; details: CTL clone
Text: The cDNA encoding an open reading frame of target genes or HLA-A*0201 was amplified by PCR. The PCR-amplified product was cloned into the expression vector. The plasmids were transfected into COS7, which is the target genes and HLA-A*0201-null cell line, using lipofectamine 2000 (Invitrogen) according to the manufacturer's recommended procedures. After 2 days from transfection, the transfected cells were harvested with versene (Invitrogen) and used as the target cells (5×10^4 cells/well) for CTL activity assay.
The established CTL lines and clones raised against each peptide were examined for the ability to recognize target cells that express C18orf54 and HLA-A*0201 molecule. […] COS7 cells transfected with either full length of C18orf54 or HLA-A*0201 were prepared as the controls.

Sequence | Peptide specific CTL activity: IFN-gamma production (ELISPOT) [1] | IFN-gamma production of CTL lines (ELISA) [2] | also measured
KLYRSASQA [SEQ ID NO: 14] | potent IFN-gamma production |  | 
QLKESMIPI [SEQ ID NO: 10] | potent IFN-gamma production |  | 
QMLFNLQAV [SEQ ID NO: 2] | potent IFN-gamma production | potent IFN-gamma production | 
SIPDFKYPV [SEQ ID NO: 4] | potent IFN-gamma production | potent IFN-gamma production | IFN-gamma production of CTL clones (ELISA) ([3]; listed as C18orf54-A02-9-255): potent IFN-gamma production
SLQKALHHL [SEQ ID NO: 5] | potent IFN-gamma production | potent IFN-gamma production | Specific CTL activity against COS7 cells expressing both C18orf54 and HLA-A*0201 ([4]; COS7 transfected with both full length C18orf54 and HLA-A*0201, listed as C18orf54-A02-9-507): potent CTL activity; also recorded: specific CTL activity; Specific CTL activity against control COS7 cells ([4]; COS7 transfected with either C18orf54 or HLA-A*0201 alone): no significant specific CTL activity; IFN-gamma production of CTL clones (ELISA) ([3]; listed as C18orf54-A02-9-507): potent IFN-gamma production
SLSDDKELV [SEQ ID NO: 3] | potent IFN-gamma production |  | 
SMIPITRSL [SEQ ID NO: 1] |  |  | Peptide specific CTL activity: IFN-gamma production (ELISPOT) ([1]; listed as C18orf54-A02-9-500): not observed
TSIPDFKYPV [SEQ ID NO: 32] | potent IFN-gamma production |  | 
VTFKSPVPV [SEQ ID NO: 9] | potent IFN-gamma production |  | 
WLTSQKSDL [SEQ ID NO: 20] | potent IFN-gamma production |  | 
